Tests used:
HDAC1 = HDAC1 (Homo sapiens (Human), UniProt Q13547); experiment: HDAC enzyme assay, HDAC1; conditions: read-out: HDAC1 IC50
HDAC6 = HDAC6 (Homo sapiens (Human), UniProt Q9UBN7); conditions: read-out: HDAC6 IC50
HDAC3 = HDAC3 (Homo sapiens (Human), UniProt O15379); experiment: HDAC enzyme assay, HDAC3; conditions: read-out: HDAC3 IC50
HDAC2 = HDAC2 (Homo sapiens (Human), UniProt Q92769); experiment: HDAC enzyme assay, HDAC2; conditions: read-out: HDAC2 IC50
HDAC2, sequence (Q92769 whole entry): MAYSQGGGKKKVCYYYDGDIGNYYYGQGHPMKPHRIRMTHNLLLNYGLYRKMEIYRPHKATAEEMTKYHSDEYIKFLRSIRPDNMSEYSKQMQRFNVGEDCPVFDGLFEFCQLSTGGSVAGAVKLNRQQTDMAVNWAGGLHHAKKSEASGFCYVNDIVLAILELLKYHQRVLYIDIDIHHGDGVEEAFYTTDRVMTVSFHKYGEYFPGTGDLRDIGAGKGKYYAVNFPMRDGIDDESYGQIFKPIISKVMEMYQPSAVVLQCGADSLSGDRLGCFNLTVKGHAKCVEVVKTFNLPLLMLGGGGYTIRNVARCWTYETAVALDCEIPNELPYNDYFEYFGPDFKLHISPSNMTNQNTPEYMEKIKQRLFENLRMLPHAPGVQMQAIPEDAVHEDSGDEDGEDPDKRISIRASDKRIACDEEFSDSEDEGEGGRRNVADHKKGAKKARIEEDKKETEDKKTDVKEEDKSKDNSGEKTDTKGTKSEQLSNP

HDAC3, sequence (O15379 whole entry): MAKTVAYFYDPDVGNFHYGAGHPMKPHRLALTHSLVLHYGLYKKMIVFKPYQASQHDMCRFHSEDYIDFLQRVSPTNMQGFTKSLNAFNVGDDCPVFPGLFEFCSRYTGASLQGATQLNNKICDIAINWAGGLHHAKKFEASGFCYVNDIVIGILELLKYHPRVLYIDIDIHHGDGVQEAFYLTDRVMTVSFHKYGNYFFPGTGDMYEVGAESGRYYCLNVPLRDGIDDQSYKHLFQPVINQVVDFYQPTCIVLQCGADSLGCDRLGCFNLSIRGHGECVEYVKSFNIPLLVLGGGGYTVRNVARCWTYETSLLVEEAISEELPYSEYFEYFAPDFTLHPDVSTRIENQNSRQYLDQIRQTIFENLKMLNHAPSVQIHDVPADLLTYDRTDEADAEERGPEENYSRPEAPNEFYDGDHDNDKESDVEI
HDAC3, sequence (Q9Y618 395-489 partner): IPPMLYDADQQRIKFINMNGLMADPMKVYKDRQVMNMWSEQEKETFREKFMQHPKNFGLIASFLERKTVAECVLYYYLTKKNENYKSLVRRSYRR
HDAC1, sequence (Q13547 whole entry): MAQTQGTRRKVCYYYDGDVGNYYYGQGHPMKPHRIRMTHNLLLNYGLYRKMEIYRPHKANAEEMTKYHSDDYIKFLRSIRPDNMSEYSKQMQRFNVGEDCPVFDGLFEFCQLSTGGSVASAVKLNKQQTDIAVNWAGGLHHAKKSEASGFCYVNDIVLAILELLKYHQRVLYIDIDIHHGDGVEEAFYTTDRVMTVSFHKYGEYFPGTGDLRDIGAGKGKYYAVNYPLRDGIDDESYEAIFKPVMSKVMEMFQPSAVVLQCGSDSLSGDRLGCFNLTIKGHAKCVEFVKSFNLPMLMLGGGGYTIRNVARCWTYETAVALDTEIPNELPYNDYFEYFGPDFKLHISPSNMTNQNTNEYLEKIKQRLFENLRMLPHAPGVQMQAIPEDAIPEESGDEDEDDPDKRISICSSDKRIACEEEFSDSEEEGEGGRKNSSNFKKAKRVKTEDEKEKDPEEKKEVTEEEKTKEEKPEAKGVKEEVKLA
HDAC6, sequence (Q9UBN7 whole entry): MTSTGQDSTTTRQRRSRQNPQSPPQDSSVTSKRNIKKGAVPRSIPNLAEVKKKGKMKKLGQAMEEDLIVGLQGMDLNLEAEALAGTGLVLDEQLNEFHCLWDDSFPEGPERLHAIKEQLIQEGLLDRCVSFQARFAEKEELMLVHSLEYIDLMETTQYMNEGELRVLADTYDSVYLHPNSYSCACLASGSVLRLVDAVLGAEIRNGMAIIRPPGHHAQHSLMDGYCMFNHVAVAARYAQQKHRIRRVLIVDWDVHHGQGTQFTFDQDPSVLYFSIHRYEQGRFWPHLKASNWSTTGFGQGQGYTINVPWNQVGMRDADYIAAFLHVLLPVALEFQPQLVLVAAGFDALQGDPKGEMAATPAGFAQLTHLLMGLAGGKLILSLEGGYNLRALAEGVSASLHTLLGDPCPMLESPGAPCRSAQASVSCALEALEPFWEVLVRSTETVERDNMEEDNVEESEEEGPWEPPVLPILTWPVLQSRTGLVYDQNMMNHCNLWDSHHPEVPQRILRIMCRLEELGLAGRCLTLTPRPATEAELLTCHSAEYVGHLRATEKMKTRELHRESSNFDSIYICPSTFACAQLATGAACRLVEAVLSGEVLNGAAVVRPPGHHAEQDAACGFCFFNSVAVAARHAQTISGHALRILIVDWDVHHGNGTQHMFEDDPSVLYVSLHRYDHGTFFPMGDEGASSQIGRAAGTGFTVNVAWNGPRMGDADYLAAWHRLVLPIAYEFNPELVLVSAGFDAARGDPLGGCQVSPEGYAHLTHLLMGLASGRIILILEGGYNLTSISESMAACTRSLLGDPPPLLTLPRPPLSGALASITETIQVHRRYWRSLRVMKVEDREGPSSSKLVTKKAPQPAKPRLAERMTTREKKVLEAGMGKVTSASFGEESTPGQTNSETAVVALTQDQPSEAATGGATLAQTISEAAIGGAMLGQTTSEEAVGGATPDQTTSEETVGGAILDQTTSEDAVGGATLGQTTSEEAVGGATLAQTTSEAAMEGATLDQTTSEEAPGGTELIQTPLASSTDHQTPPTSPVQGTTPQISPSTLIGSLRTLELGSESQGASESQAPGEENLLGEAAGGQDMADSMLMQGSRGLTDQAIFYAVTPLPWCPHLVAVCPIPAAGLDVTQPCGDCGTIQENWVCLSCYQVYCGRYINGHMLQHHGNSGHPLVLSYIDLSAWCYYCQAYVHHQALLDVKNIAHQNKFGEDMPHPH

Row | IC50 (HDAC1) [nM] | IC50 (HDAC6) [nM] | IC50 (HDAC3) [nM] | IC50 (HDAC2) [nM] | Structure (SMILES)
1 | 185 | 3 | – | – | Cc1cc(Cl)ccc1CNc1ncc(C(=O)NO)cn1 [Compound 52]
2 | 500 | – | 1260 | 912 | CC(C)(Nc1ncc(C(=O)NO)cn1)c1ccccc1F [Compound 71]
3 | – | 2 | – | – | CC(Nc1ncc(C(=O)NO)cn1)c1ccccc1 (stereo not drawn) [Compound 67]
4 | 528 | – | 1260 | 491 | O=C(NO)c1cnc(NC2(c3cccc(Cl)c3)CCCC2)nc1 [Compound 153]
5 | 47 | – | 99 | 40 | Cc1cccc(C2(Nc3ncc(C(=O)NO)cn3)CC2)c1 [Compound 134]
6 | – | 38 | 219 | – | CN(c1ccc(Cl)c(Cl)c1)c1ncc(C(=O)NO)cn1 [Compound 8]
7 | 173 | 11 | 307 | – | O=C(NO)c1cnc(NCCc2ccc(Cl)cc2)nc1 [Compound 44]
8 | 147 | 4 | 4250 | – | O=C(NO)c1cnc(NC2(c3cccs3)CC2)nc1 [Compound 98]
9 | – | 1 | – | – | C[C@@H](Nc1ncc(C(=O)NO)cn1)c1ccccc1 [Compound 66]
10 | 264 | 5 | 299 | – | O=C(NO)c1cnc(Nc2ccc(Cl)c(Cl)c2)nc1 [Compound 2]
11 | 50 | – | 119 | 57 | Cc1ccccc1C1(Nc2ncc(C(=O)NO)cn2)CC1 [Compound 127]
12 | – | 37 | – | – | C[C@H](Nc1ncc(C(=O)NO)cn1)c1ccccc1 [Compound 61]
13 | 219 | – | 303 | 338 | COc1cc(F)ccc1CNc1ncc(C(=O)NO)cn1 [Compound 49]
14 | 13 | – | 54 | 17 | O=C(NO)c1cnc(NC2(c3ccc(Cl)c(Cl)c3)CC2)nc1 [Compound 141]
15 | 85 | – | 233 | 116 | O=C(NO)c1cnc(NC2(c3cccc(F)c3)CC2)nc1 [Compound 87]
16 | 214 | 4 | 326 | – | O=C(NO)c1cnc(NCCc2ccccc2)nc1 [Compound 41]
17 | 27 | – | 99 | 32 | O=C(NO)c1cnc(NC2(c3cccc(C(F)(F)F)c3)CC2)nc1 [Compound 121]
18 | 22 | – | 50 | – | O=C(NO)c1cnc(NC2(c3cccc(Cl)c3)CC2)nc1 [Compound 94]
19 | 17 | – | 62 | 19 | O=C(NO)c1cnc(NC2(c3ccc(F)c(Cl)c3)CC2)nc1 [Compound 131]
20 | 45 | – | 107 | 40 | O=C(NO)c1cnc(NC2(c3ccc(Cl)cc3)CC2)nc1 [Compound 136]
21 | – | 2 | – | – | C[C@@H](Nc1ncc(C(=O)NO)cn1)c1ccccc1 [Compound 62]
22 | – | 2 | – | – | CC(Nc1ncc(C(=O)NO)cn1)c1ccccc1 (stereo not drawn) [Compound 32]
23 | 16 | – | 22 | 18 | O=C(NO)c1cnc(NC2(c3ccccc3F)CC2)nc1 [Compound 82]
24 | 38 | – | 128 | 53 | COc1cccc(C2(Nc3ncc(C(=O)NO)cn3)CC2)c1 [Compound 120]
25 | 204 | 5 | 299 | – | O=C(NO)c1cnc(NCc2ccncc2)nc1 [Compound 69]
26 | 16 | – | 57 | 22 | O=C(NO)c1cnc(NC2(c3cc(Cl)cc(Cl)c3)CC2)nc1 [Compound 146]
27 | 40 | – | 58 | 53 | O=C(NO)c1cnc(NCc2ccc3c(c2)OCO3)nc1 [Compound 46]
28 | – | 19 | – | – | C[C@H](Nc1ncc(C(=O)NO)cn1)c1ccccc1 [Compound 65]
